Among the data in PubChem BioAssay AID1963975 (Molecular Pharmacology Branch, DTP, NCI, 2024) are viability, T/C and IC50 values, retold here.

The structures appear in SMILES notation. Where “and” joins values, the source holds several entries; their conditions need not be identical. Equal entries are not always repeated.

This test deals with 624824-186-R-J2-PDC multicell spheroids, viability. Kind of test: Anticancer human tumor 624824-186-R-J2-PDC patient-derived colon adenocarcinoma cell line growth inhibition [PI3K]. As to conditions: for viability, T/C: stronger effect = lower value. The text has this:
Combinatorial screen of targeted agents with the PI3K inhibitors inavolisib, alpelisib, duvelisib, and copanlisib in multi-cell type tumor spheroids
A high-throughput screen of multi-cell type tumor spheroids was designed to identify active combinations of targeted small molecules and PI3K pathway inhibitors. Complex spheroids include a stromal component modeled by human endothelial cells (HUVEC) and fibroblasts modeled by human mesenchymal stem cells (MSCs). The concentration ranges selected for each drug and investigational agent were based upon clinically achievable concentrations if the clinical Cmax of the agent was known.
Compounds. The drugs and investigational agents: inavolisib (NSC800729), alpelisib (NSC765974), duvelisib (NSC772469), copanlisib (NSC816437), ipatasertib (NSC767898), afuresertib (NSC778305), talazoparib (NSC767125), sapanisertib (NSC764658), selumetinib (NSC741078), tovorafenib (DAY101, NSC766906), vemurafenib (NSC761431), ravoxertinib (NSC781343), sotorasib (NSC818433), MRTX1133 (NSC 836407), abemaciclib (NSC 768073), palbociclib (NSC758247), venetoclax (NSC 766270), SY5609 (NSC837396), enzalutamide (NSC755605), and darolutamide (NSC825331), were obtained from the National Cancer Institute (NCI) Developmental Therapeutics Program Chemical Repository. The FDA-approved anticancer drug set is available from the NCI Developmental Therapeutics Program. […] The stock solutions were prepared in dimethyl sulfoxide (DMSO, Sigma-Aldrich, St. Louis, MO, cat. D2650) at 800-fold the tested concentration and stored at -70 degrees C prior to their use. All drugs and investigational agents were tested over a range starting from a high concentration at or near the clinical Cmax and decreasing in half-log increments. If the clinical Cmax for an agent had not been determined, the highest concentration tested was 10 microM.
Cell Culture. All cells were maintained in an incubator at 37 degrees C and 5% CO2 with 95% humidity. The PDC lines were cultured according to standard operating procedures established by the NCI PDMR (https://pdmr.cancer.gov/sops/default.htm). All PDCs were thawed and cultured in Matrigel-coated flasks prepared with a working solution of 1X Ham's F-12 nutrient mix, without supplementation (Invitrogen, Waltham, MA, cat. 11765054), 100 U/mL penicillin-streptomycin (Invitrogen, cat. 15140122), and 2.5% Matrigel (Corning Inc., Corning, NY, cat. 354248) for the first three passages. The 354836-022-R-J1-PDC, 475296-252-R-J1-PDC, and 997726-040-R-J2-PDC lines were cultured in 6A media, which includes advanced DMEM/F-12 (Thermo Fisher Scientific, cat. 12634028), 10 mM HEPES (Thermo Fisher Scientific, cat. 15630080), 1X GlutaMAX supplement (Thermo Fisher Scientific, cat. 35050061), 0.1 mg/mL primocin (InvivoGen, San Diego, CA, cat. ant-pm-2), 10% defined fetal bovine serum, heat inactivated (HyClone Laboratories Inc., Logan, UT, cat. SH30070.03HI), 50% L-WRN conditioned media (ATCC, cat. CRL-3276), 1.25 mM N-Acetyl-L-cysteine (Sigma-Aldrich, cat. A9165), 10 mM nicotinamide (Sigma-Aldrich, cat. N0636), 1X B-27 supplement (Thermo Fisher Scientific, cat. 17504044), 1X N-2 supplement (Thermo Fisher Scientific, cat. 17502048), and 10 microM Y-27632 dihydrochloride (Tocris Bioscience, Bristol, United Kingdom, cat. 1254). The 624824-186-R-J2-PDC line was cultured in 6C/Colon 1B media, which includes all 6A media components plus 50 ng/mL human EGF recombinant protein (Thermo Fisher Scientific, cat. PHG0311). […]

Where [1] appears, read: compound alone, run of 06/12/2023.
Setting [2] is: compound alone, run of 06/13/2023.
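Also: spheroids exposed to agents for 7 days before viability read.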

Usually viability, T/C stands for the ratio of treated to control. As usually defined, the IC50 is the concentration that gives 50% inhibition. As to `C#Cc1c(F)ccc2cc(O)cc(-c3ncc4c(N5CC6CCC(C5)N6)nc(OCC56CCCN5CC(F)C6)nc4c3F)c12` (configuration not stated), the viability, T/C is, setting by setting: (compound 0.0316 µM) 94.5% [middle of 4 runs]; (compound 0.316 µM) 97% [middle of 4 runs]; (compound 3.16 µM) 84.7% [middle of 4 runs]; (compound 10 µM) 86.3% [middle of 4 runs]. Moreover, the 50% inhibitory concentration (IC50) (curve of compound) was greater than 10 µM.
As to `C=CC(=O)N1CCN(c2nc(=O)n(-c3c(C)ccnc3C(C)C)c3nc(-c4c(O)cccc4F)c(F)cc23)C(C)C1` (configuration not stated), the viability, T/C was 82% [middle of 4 runs] (compound 0.1 µM), 82.1% [middle of 4 runs] (compound 0.316 µM), 99.7% [middle of 4 runs] (compound 1 µM) and 100% [middle of 4 runs] (compound 10 µM). In addition, the 50% inhibitory concentration (IC50) (curve of compound) is greater than 10 µM.
Consider `CC(=O)c1c(C)c2cnc(Nc3ccc(N4CCNCC4)cn3)nc2n(C2CCCC2)c1=O`, for which the viability, T/C (compound 0.00316 µM) was 93.5% [middle of 4 runs] and the viability, T/C (compound 0.1 µM) was 87.5% [middle of 4 runs]. Further, the IC50 (curve of compound) was greater than 0.1 µM.
On to `CC(C)NCC(C(=O)N1CCN(c2ncnc3c2C(C)CC3O)CC1)c1ccc(Cl)cc1` (configuration not stated), for which the viability, T/C reads like this: (compound 0.1 µM) 92.5% [middle of 4 runs]; (compound 0.316 µM) 84.4% [middle of 4 runs]; (compound 3.16 µM) 88.5% [middle of 4 runs]; (compound 10 µM) 85.7% [middle of 4 runs]. The concentration for half-maximal inhibition (IC50) (curve of compound) is greater than 10 µM.
Regarding `CC(C)n1nc(-c2ccc3oc(N)nc3c2)c2c(N)ncnc21`, the viability, T/C is 79.1% [middle of 4 runs] (compound 0.00316 µM), 82.6% [middle of 4 runs] (compound 0.01 µM), 76.4% [middle of 4 runs] (compound 0.0316 µM) and 79.5% [middle of 4 runs] (compound 0.1 µM). For the same compound, the IC50 (curve of compound) is greater than 0.1 µM.
In the case of `CC(Cn1ccc(-c2ccc(C#N)c(Cl)c2)n1)NC(=O)c1cc(C(C)O)[nH]n1` (configuration not stated), the viability, T/C (compound 0.0316 µM) was 91.5% [middle of 4 runs]; the viability, T/C (compound 0.316 µM) is 89.7% [middle of 4 runs]; the viability, T/C (compound 1 µM) was 92.9% [middle of 4 runs]; the viability, T/C (compound 3.16 µM) is 101% [middle of 4 runs]; the viability, T/C (compound 10 µM) was 106% [middle of 4 runs]. Also, the 50% inhibitory concentration (IC50) (curve of compound) is greater than 10 µM.
Consider `CC(Nc1ccc2c(c1)OCCn1cc(N3C(=O)OCC3C(F)F)nc1-2)C(N)=O` (configuration not stated), for which the viability, T/C reads like this: (compound 0.01 µM) 95% [middle of 8 runs]; (compound 0.0316 µM) 84.8% [middle of 8 runs]; (compound 0.1 µM) 90.3% [middle of 8 runs]; (compound 0.316 µM) 89.7% [middle of 8 runs]; (compound 1 µM) 95.2% [middle of 8 runs]. Besides, the concentration for half-maximal inhibition (IC50) under setting [1] was greater than 1 µM.
On to `CC(Nc1ncnc2nc[nH]c12)c1cc2cccc(Cl)c2c(=O)n1-c1ccccc1` (configuration not stated), for which the viability, T/C by setting is: (compound 0.316 µM) 91.6% [middle of 8 runs]; (compound 1 µM) 91.4% [middle of 8 runs]. Further, under setting [2], the IC50 is greater than 10 µM.
Regarding `CC1(C)CCC(CN2CCN(c3ccc(C(=O)NS(=O)(=O)c4ccc(NCC5CCOCC5)c([N+](=O)[O-])c4)c(Oc4cnc5[nH]ccc5c4)c3)CC2)=C(c2ccc(Cl)cc2)C1`, the viability, T/C (compound 0.1 µM) is 78.7% (2×) and 107% and 95.2%; the viability, T/C (compound 0.316 µM) was 80.4% [middle of 4 runs]; the viability, T/C (compound 3.16 µM) is 67% [middle of 4 runs]; the viability, T/C (compound 10 µM) is 72.2% [middle of 4 runs]. The half-maximal inhibitory concentration (IC50) (curve of compound) is greater than 10 µM.
`CC1(C)CCC(Nc2ncc(C(F)(F)F)c(-c3c[nH]c4c(P(C)(C)=O)c(C#N)ccc34)n2)CN1` (configuration not stated): the viability, T/C reads like this: (compound 0.1 µM) 76.4% [middle of 4 runs]; (compound 0.316 µM) 102% [middle of 4 runs]; (compound 1 µM) 104% [middle of 4 runs]; (compound 3.16 µM) 62.5% [middle of 4 runs]; (compound 10 µM) 7.89% [middle of 4 runs]. Further, the half-inhibitory concentration (IC50) (curve of compound) is 4.11 µM [middle of 4 runs].
Take `CCCS(=O)(=O)Nc1ccc(F)c(C(=O)c2c[nH]c3ncc(-c4ccc(Cl)cc4)cc23)c1F`: the viability, T/C (compound 0.0316 µM) was 90.4% [middle of 4 runs]; the viability, T/C (compound 0.1 µM) was 90.6% [middle of 4 runs]; the viability, T/C (compound 0.316 µM) is 88% [middle of 4 runs]; the viability, T/C (compound 3.16 µM) was 122% [middle of 4 runs]; the viability, T/C (compound 10 µM) was 52.3% [middle of 4 runs]. Further, the IC50 (curve of compound) is 9.53 µM and > 10 µM and 9.39 µM.
As to `CCN1CCN(Cc2ccc(Nc3ncc(F)c(-c4cc(F)c5nc(C)n(C(C)C)c5c4)n3)nc2)CC1`, the viability, T/C (compound 0.0316 µM) was 86.1% [middle of 4 runs]; the viability, T/C (compound 0.1 µM) was 93.7% [middle of 4 runs]; the viability, T/C (compound 0.316 µM) was 93.5% [middle of 4 runs]; the viability, T/C (compound 1 µM) is 102% [middle of 4 runs]. Moreover, the 50% inhibitory concentration (IC50) (curve of compound) is greater than 1 µM.
With `CNC(=O)c1ccc(N2C(=S)N(c3ccc(C#N)c(C(F)(F)F)c3)C(=O)C2(C)C)cc1F`, the IC50 (curve of compound) was greater than 10 µM.
For the compound `COc1c(OCCCN2CCOCC2)ccc2c3n(c(=NC(=O)c4cnc(N)nc4)nc12)CCN3`, the viability, T/C by setting is: (compound 0.01 µM) 91.7% [middle of 8 runs]; (compound 0.0316 µM) 88.2% [middle of 8 runs]; (compound 0.1 µM) 75.5% [middle of 8 runs]; (compound 0.316 µM) 67.3% [middle of 8 runs]; (compound 1 µM) 65.1% [middle of 8 runs]. For the same compound, the IC50 under setting [2] was greater than 1 µM.
Regarding `C[C@@H](NC(=O)c1ncnc(N)c1Cl)c1ncc(C(=O)Nc2cc(C(F)(F)F)c(Cl)cn2)s1`, the viability, T/C is, setting by setting: (compound 1 µM) 81.6% [middle of 4 runs]; (compound 3.16 µM) 68% [middle of 4 runs]. In addition, the concentration for half-maximal inhibition (IC50) (curve of compound) was greater than 10 µM.
For the compound `Cc1nc(NC(=O)N2CCCC2C(N)=O)sc1-c1ccnc(C(C)(C)C(F)(F)F)c1` (configuration not stated), the viability, T/C by setting is: (compound 0.1 µM) 83.4% [middle of 8 runs]; (compound 10 µM) 80.8% [middle of 8 runs]. Moreover, the IC50 under setting [1] was greater than 10 µM.
Regarding `Cn1cnc2c(F)c(Nc3ccc(Br)cc3Cl)c(C(=O)NOCCO)cc21`, the viability, T/C (compound 0.00949 µM) is 85.4% [middle of 4 runs] and the viability, T/C (compound 0.949 µM) was 79.5% [middle of 4 runs]. Besides, the half-maximal inhibitory concentration (IC50) (curve of compound) was greater than 3 µM.
Take `Cn1ncc(Cl)c1-c1cc(C(=O)NC(CN)Cc2cccc(F)c2)sc1Cl` (configuration not stated): the viability, T/C is 79.8% [middle of 4 runs] (compound 0.1 µM); 74.5% [middle of 4 runs] (compound 0.316 µM); 89.4% [middle of 4 runs] (compound 1 µM); 68.2% [middle of 4 runs] (compound 3.16 µM); 59.2% [middle of 4 runs] (compound 10 µM). For the same compound, the IC50 (curve of compound) is greater than 10 µM.
For `Cn1nccc1Nc1nccc(-c2ccn(C(CO)c3ccc(Cl)c(F)c3)c(=O)c2)n1` (configuration not stated), the viability, T/C reads like this: (compound 0.0316 µM) 88.9% [middle of 4 runs]; (compound 0.316 µM) 72.8% [middle of 4 runs]; (compound 1 µM) 94% [middle of 4 runs]; (compound 3.16 µM) 91.2% [middle of 4 runs]. Further, the IC50 (curve of compound) was greater than 10 µM.
Consider `Cn1ncnc1[C@H]1c2n[nH]c(=O)c3cc(F)cc(c23)N[C@@H]1c1ccc(F)cc1`, for which the viability, T/C is, setting by setting: (compound 0.000316 µM) 99.1% [middle of 4 runs]; (compound 0.00316 µM) 90.5% [middle of 4 runs]; (compound 0.0316 µM) 103% [middle of 4 runs]; (compound 0.1 µM) 89.3% [middle of 4 runs]. The IC50 (curve of compound) was greater than 0.1 µM.
